Assay results from patent US8268859B2, “Glucocorticoid mimetics, methods of making them, pharmaceutical compositions and uses thereof” (Boehringer Ingelheim International GmbH, priority 2008, dated 2012).
In brackets after ≈: the same amount, converted by molar mass. Like-named read-outs stand apart in the source and are kept apart here.

Key:
Potassium Channel HERG = biological target: T1, Potassium Channel HERG (Homo sapiens, UniProt Q12809); test: hERG assays (either hERG binding assay or hERG patch clamp assay); assay type: cell-based; settings: Table 3, not specified per compound
T1 construct: expressed in transfected cells; host or cells: HEK-293 cells

[1] = Human microsomal stability; assay type: in vitro ADME; settings: pH 7.4; human liver microsomes; read-out: human liver microsome half life
[2] = High throughput solubility; assay type: physicochemical; settings: aqueous buffer (pION system solution), pH 7, aqueous buffer, kinetic from dmso stock
[3] = biological target: T2, human glucocorticoid receptor (GR) complex (Homo sapiens, UniProt P04150); test: Glucocorticoid receptor fluorescence polarization competitive binding assay;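 note: GR complex expressed in an insect system, wells lacking compound give full signal, excess unlabeled dexamethasone defines the blank, IC50 from logistic curve fit of polarization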
T2 construct: made in house; host or cells: insect expression system (baculovirus lysate)
T2 sequence (P04150 1-777): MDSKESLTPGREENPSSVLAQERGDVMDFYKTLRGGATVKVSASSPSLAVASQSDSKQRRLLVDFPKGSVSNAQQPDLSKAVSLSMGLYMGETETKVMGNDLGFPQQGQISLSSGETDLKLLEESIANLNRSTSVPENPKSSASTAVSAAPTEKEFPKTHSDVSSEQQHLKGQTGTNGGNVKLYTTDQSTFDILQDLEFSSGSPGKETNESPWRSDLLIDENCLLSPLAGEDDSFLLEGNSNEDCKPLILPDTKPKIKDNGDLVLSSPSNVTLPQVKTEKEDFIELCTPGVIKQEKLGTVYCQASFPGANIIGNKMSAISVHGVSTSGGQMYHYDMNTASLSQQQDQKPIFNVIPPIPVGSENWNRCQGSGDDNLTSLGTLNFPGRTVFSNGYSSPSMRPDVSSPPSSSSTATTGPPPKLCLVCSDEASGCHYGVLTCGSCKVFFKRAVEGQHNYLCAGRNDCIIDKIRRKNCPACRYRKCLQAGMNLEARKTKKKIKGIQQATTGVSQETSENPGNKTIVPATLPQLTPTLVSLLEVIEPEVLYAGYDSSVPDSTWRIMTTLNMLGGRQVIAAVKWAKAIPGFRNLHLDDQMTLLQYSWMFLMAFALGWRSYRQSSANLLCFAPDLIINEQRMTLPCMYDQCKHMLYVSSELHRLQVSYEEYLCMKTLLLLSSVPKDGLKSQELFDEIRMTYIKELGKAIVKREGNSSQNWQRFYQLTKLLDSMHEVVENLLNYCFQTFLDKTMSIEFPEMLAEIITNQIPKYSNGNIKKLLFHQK

human recombinant CYP3A4 = human recombinant CYP3A4 (Homo sapiens, UniProt P08684); test: Cytochrome P450 inhibition assay (substrate 7-benzyloxy-4-(trifluoromethyl)coumarin); assay type: in vitro ADME;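 note: compounds preincubated at least 10 min at 37 °C before adding enzyme plus substrate, reaction run 30 min at 37 °C, ketoconazole standard curve on every plate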
[4] = Table 1, competition with TAMRA-labeled dexamethasone, read-out: GR IC50

T1 sequence (Q12809 whole entry): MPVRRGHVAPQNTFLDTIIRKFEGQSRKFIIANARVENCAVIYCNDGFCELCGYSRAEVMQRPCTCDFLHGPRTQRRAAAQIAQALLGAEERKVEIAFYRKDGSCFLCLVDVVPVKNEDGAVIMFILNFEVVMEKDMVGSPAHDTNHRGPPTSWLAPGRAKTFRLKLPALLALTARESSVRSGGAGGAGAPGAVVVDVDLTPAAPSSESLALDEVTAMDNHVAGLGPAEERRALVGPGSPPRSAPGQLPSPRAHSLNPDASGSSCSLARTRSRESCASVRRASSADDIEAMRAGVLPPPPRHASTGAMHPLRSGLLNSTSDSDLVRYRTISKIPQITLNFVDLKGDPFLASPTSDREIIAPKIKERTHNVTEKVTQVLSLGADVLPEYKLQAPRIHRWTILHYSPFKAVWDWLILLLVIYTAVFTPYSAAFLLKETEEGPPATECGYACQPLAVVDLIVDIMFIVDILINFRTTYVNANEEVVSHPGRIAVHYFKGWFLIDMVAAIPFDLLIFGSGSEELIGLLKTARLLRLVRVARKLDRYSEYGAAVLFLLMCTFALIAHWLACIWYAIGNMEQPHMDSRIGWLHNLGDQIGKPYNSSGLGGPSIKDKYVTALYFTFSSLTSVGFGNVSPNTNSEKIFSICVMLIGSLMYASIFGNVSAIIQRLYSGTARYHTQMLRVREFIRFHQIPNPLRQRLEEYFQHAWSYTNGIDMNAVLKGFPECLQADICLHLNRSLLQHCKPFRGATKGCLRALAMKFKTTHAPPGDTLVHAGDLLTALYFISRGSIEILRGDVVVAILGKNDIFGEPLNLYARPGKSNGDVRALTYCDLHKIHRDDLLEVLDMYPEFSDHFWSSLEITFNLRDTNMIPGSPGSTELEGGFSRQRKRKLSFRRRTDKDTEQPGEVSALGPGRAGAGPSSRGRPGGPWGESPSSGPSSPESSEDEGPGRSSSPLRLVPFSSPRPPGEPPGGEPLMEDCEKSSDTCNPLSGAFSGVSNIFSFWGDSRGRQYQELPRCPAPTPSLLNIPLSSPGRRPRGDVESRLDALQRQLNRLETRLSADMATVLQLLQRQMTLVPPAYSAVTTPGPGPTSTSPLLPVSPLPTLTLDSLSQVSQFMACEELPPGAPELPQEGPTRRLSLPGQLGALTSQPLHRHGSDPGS
Sequence of human recombinant CYP3A4 (P08684 whole entry): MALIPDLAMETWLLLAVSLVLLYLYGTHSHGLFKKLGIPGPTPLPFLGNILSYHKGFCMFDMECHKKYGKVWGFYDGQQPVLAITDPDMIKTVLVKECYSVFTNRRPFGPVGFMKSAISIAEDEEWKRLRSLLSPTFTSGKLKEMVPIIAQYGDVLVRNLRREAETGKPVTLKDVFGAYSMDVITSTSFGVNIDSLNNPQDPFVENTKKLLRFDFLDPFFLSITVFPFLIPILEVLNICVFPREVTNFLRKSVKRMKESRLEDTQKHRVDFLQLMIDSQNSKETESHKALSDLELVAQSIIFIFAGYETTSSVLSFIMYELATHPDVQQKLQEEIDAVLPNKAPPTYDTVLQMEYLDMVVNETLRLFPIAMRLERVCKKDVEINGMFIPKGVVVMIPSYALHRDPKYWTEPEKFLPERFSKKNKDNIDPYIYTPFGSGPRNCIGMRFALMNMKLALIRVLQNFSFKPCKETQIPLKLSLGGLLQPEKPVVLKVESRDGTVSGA

half-life [1] [min] | solubility [2] [mg/mL] | IC50 [3, 4] [µM] | IC50 (human recombinant CYP3A4; Table 1, read-out: CYP3A4 IC50) [µM] | IC50 (human recombinant CYP3A4; Table 3, read-out: CYP3A4 Inhibition IC50) [µM] | Structure (SMILES) | IC50 (Potassium Channel HERG) [µM] | IC50 [3] [µM]
11 | 0.018 (≈ 31.7 µM) |  |  |  | CCS(=O)(=O)c1cc2cc(CC(O)(CC(C)(C)c3ccc(Cl)cc3S(C)(=O)=O)C(F)(F)F)[nH]c2cn1 (stereo not drawn) [drawing 98] | > 10 | 
14 | > 0.1 |  |  |  | CC(C)(C[C@@](O)(Cc1cc2cc(S(C)(=O)=O)ncc2[nH]1)C(F)(F)F)c1ccc(F)cc1S(C)(=O)=O [drawing 100] | > 30 | 
7 | 0.052 (≈ 94.4 µM) |  |  |  | CCS(=O)(=O)c1cc2cc(CC(O)(CC(C)(C)c3ccc(F)cc3S(C)(=O)=O)C(F)(F)F)[nH]c2cn1 (stereo not drawn) [drawing 99] | > 30 | 
 |  | 0.007 | 1.8 |  | CCS(=O)(=O)c1cc2cc(C[C@](O)(CC(C)(C)c3cc(Cl)cc4c3OCC4)C(F)(F)F)[nH]c2cn1 [(R)-4-(5-Chloro-2,3-dihydrobenzofuran-7-yl)-2-(5-ethanesulfonyl-1H-pyrrolo[2,3-c]pyridin-2-ylmethyl)-1,1,1-trifluoro-4-methylpentan-2-ol] |  | 
< 3 |  |  |  | 6.5 | CC(C)(C[C@@](O)(Cc1cc2cc(S(C)(=O)=O)ncc2[nH]1)C(F)(F)F)c1cc(Cl)cc2c1OCC2 [drawing 95] | 9.4 | 
 |  | 0.014 | 0.9 |  | CCCS(=O)(=O)c1cc2cc(CC(O)(CC(C)(C)c3cc(Cl)ccc3S(C)(=O)=O)C(F)(F)F)[nH]c2cn1 (stereo not drawn) [4-(5-Chloro-2-methanesulfonylphenyl)-1,1,1-trifluoro-4-methyl-2-[5-(propane-1-sulfonyl)-1H-pyrrolo[2,3-c]pyridin-2-ylmethyl]pentan-2-ol] |  | 

Second part, the compound before the results:

Structure (SMILES) | half-life [1] [min] | solubility [2] [mg/mL] | IC50 [3, 4] [µM] | IC50 (human recombinant CYP3A4; Table 1, read-out: CYP3A4 IC50) [µM] | IC50 (human recombinant CYP3A4; Table 3, read-out: CYP3A4 Inhibition IC50) [µM] | IC50 (Potassium Channel HERG) [µM] | IC50 [3] [µM]
CC(C)(CC(O)(Cc1cc2cc(S(C)(=O)=O)ncc2[nH]1)C(F)(F)F)c1ccc(F)cc1C(N)=O (stereo not drawn) | 45 | > 0.1 |  |  |  | > 30 | 
CC(C)(CC(O)(Cc1cc2cc(S(C)(=O)=O)ncc2[nH]1)C(F)(F)F)c1ccccc1S(C)(=O)=O (stereo not drawn) | < 3 | 0.059 (≈ 114 µM) |  |  |  |  | 
CCS(=O)(=O)c1cc2cc(C[C@](O)(CC(C)(C)c3ccc(F)cc3C(N)=O)C(F)(F)F)[nH]c2cn1 | > 300 | > 0.1 |  |  |  |  | 
CC(C)(C[C@@](O)(Cc1cc2cc(S(C)(=O)=O)ncc2[nH]1)C(F)(F)F)c1ccc(Cl)cc1S(C)(=O)=O [drawing 97] | 17 | 0.04 (≈ 72.3 µM) |  |  |  | > 10 | 
CC(C)(C[C@@](O)(Cc1cc2cc(S(C)(=O)=O)ncc2[nH]1)C(F)(F)F)c1ccccc1C(N)=O | 44 | 0.017 (≈ 35.2 µM) |  |  |  | > 30 | 
CC(C)(CC(O)(Cc1cc2cc(S(C)(=O)=O)ncc2[nH]1)C(F)(F)F)c1cccc(F)c1S(C)(=O)=O (stereo not drawn) [1,1,1-Trifluoro-4-(3-fluoro-2-methanesulfonylphenyl)-2-(5-methanesulfonyl-1H-pyrrolo[2,3-c]pyridin-2-ylmethyl)-4-methylpentan-2-ol] |  |  | 0.062 | > 30 |  |  | 
CC(C)(CC(O)(Cc1cc2nc(S(C)(=O)=O)ccc2[nH]1)C(F)(F)F)c1cc(Cl)ccc1S(C)(=O)=O (stereo not drawn) [4-(5-Chloro-2-methanesulfonylphenyl)-1,1,1-trifluoro-2-(5-methanesulfonyl-1H-pyrrolo[3,2-b]pyridin-2-ylmethyl)-4-methylpentan-2-ol] |  |  |  | 4.1 |  |  | 0.008
